Laboratory results as given in BindingDB's records for doi:10.1021/jm00160a020 (1986).

Biological target: Platelet-activating factor receptor (Oryctolagus cuniculus)
Assay: Inhibition of PAF receptor binding to rabbit platelet plasma membranes

| Compound | IC50 [nM] |
| --- | --- |
| COc1ccc(C2CC[C@H](c3ccc(OC)c(OC)c3)O2)cc1OC (some centres not stated) | > 3000 |
| COc1ccc([C@H]2CC[C@H](c3ccc(OC)c(OC)c3)O2)cc1OC | 500 |
